Reference: patent US7279491B2 (Janssen Pharmaceutica N.V., priority 2002, dated 2007)

What follows are molecules tested against T1, human histamine H3 receptor (Homo sapiens, UniProt Q9Y5N1) (assay: {3H}-N-methylhistamine binding to membranes of histamine H3 receptor-expressing SK-N-MC cells). Conditions: 0.8 nM {3H}-N-methylhistamine, 45 min at 25° C., Ki=(IC50)/(1+({L}/(Kd)), Kd 800 pM).
T1 construct: One microgram of supercoiled H3 receptor cDNA was added to the cells and mixed; expressed in transfected cells; membranes
T1 sequence (Q9Y5N1 whole entry): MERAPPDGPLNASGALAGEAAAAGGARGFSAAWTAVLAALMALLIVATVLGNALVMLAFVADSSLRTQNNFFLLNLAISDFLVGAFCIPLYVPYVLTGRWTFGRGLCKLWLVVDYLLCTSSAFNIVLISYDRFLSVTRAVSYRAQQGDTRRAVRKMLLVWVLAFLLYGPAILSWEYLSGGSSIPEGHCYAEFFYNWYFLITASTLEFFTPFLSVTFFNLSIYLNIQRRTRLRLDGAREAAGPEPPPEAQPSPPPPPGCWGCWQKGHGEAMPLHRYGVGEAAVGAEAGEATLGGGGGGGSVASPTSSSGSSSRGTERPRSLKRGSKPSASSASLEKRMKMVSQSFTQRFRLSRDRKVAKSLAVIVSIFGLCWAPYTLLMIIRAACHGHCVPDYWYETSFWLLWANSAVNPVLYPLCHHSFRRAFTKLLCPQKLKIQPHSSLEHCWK
Procedure: Transfection of Cells with Human Histamine Receptor
A 10 cm tissue culture dish with a confluent monolayer of SK-N-MC cells was split two days prior to transfection. Using sterile technique the media was removed and the cells were detached from the dish by the addition of trypsin. One fifth of the cells were then placed onto a new 10 cm dish. Cells were grown in a 37° C. incubator with 5% CO2 in Minimal Essential Media Eagle with 10% Fetal Bovine Serum. After two days cells were approximately 80% confluent. These were removed from the dish with trypsin and pelleted in a clinical centrifuge. The pellet was then re-suspended in 400 μL complete media and transferred to an electroporation cuvette with a 0.4 cm gap between the electrodes. One microgram of supercoiled H3 receptor cDNA was added to the cells and mixed. The voltage for the electroporation was set at 0.25 kV, the capacitance was set at 960 μF. After electroporation the cells were diluted into 10 mL complete media and plated onto four 10 cm dishes. Because of the variability in the efficiency of electroporation, four different concentrations of cells were plated. The ratios used were; 1:20, 1:10, 1:5, with the remainder of the cells being added to the fourth dish. The cells were allowed to recover for 24 h before adding the selection media (complete media with 600 μg/mL G418). After 10 days dishes were analyzed for surviving colonies of cells. Dishes with well-isolated colonies were used. Cells from individual colonies were isolated and tested. SK-N-MC cells were used because they give efficient coupling for inhibition of adenylate cyclase. The clones that gave the most robust inhibition of adenylate cyclase in response to histamine were used for further study.
{^3H}-N-methylhistamine Binding
Cell pellets from histamine H3 receptor-expressing SK-N-MC cells were homogenized in 20 mM Tris HCl/0.5 mM EDTA. Supernatants from an 800 g spin were collected, recentrifuged at 30,000 g for 30 min. Pellets were re-homogenized in 50 mM Tris/5 mM EDTA (pH 7.4). Membranes were incubated with 0.8 nM {^3H}-N-methylhistamine plus/minus test compounds for 45 min at 25° C. and harvested by rapid filtration over GF/C glass fiber filters (pretreated with 0.3% polyethylenimine) followed by four washes with ice-cold buffer. Filters were dried, added to 4 mL scintillation cocktail and then counted on a liquid scintillation counter. Non-specific binding was defined with 10 μM histamine. The pKi values were calculated based on a Kd of 800 pM and a ligand concentration ({L}) of 800 pM according to the formula: Ki=(IC50)/(1+({L}/(Kd))

Row | SMILES | Ki [nM]
1 | FC(F)(F)c1cc(CN2CCCCC2)ccc1N1CCC(CN2CCCC2)CC1 [Example 68, 1-[4-(4-Pyrrolidin-1-ylmethyl-piperidin-1-yl)-3-trifluoromethyl-benzyl]-piperidine] | 14
2 | O=[N+]([O-])c1cc(CN2CCOCC2)ccc1N1CCC(CN2CCCC2)CC1 [Example 70, 4-[3-Nitro-4-(4-pyrrolidin-1-ylmethyl-piperidin-1-yl)-benzyl]-morpholine] | 36
3 | FC(F)(F)c1cc(N2CCC(CN3CCCC3)CC2)ccc1CN1CCCCC1 [Example 72, 1-[4-(4-Pyrrolidin-1-ylmethyl-piperidin-1-yl)-2-trifluoromethyl-benzyl]-piperidine] | 8
4 | Cc1cc(CN2CCN(C(C)C)CC2)ccc1N1CCC(CN2CCCC2)CC1 [Example 73, 1-Isopropyl-4-[3-methyl-4-(4-pyrrolidin-1-ylmethyl-piperidin-1-yl)-benzyl]-piperazine] | 16
5 | FC(F)(F)c1cc(CN2CCC(N3CCCC3)CC2)ccc1N1CCC(CN2CCCC2)CC1 [Example 76, 1-{1-[4-(4-Pyrrolidin-1-yl-piperidin-1-ylmethyl)-2-trifluoromethyl-phenyl]-piperidin-4-ylmethyl}-pyrrolidine] | 9
6 | FC(F)(F)c1ccc(C2CCN(Cc3ccc(N4CCC(CN5CCCC5)CC4)cc3C(F)(F)F)CC2)cc1 [Example 77, 1-(1-{3-Trifluoromethyl-4-[4-(4-trifluoromethyl-phenyl)-piperidin-1-ylmethyl]-phenyl}-piperidin-4-ylmethyl)-pyrrolidine] | 160
7 | Fc1cc(CN2CCC(c3ccccc3)CC2)ccc1N1CCC(CN2CCCC2)CC1 [Example 78, 1-{1-[2-Fluoro-4-(4-phenyl-piperidin-1-ylmethyl)-phenyl]-piperidin-4-ylmethyl}-pyrrolidine] | 7
8 | FC(F)(F)c1cc(N2CCC(CN3CCCC3)CC2)ccc1CN1CCOCCOCCOCCOCC1 [Example 81, 13-[4-(4-pyrrolidin-1-ylmethyl-piperidin-1-yl)-2-trifluoromethyl-benzyl]-1,4,7,10-tetraoxa-13-aza-cyclopentadecane Ditrifluoromethanesulfonate] | 34
9 | OCC1CCN(Cc2ccc(N3CCC(CN4CCCC4)CC3)c(C(F)(F)F)c2)CC1 [Example 82, {1-[4-(4-Pyrrolidin-1-ylmethyl-piperidin-1-yl)-3-trifluoromethyl-benzyl]-piperidin-4-yl}-methanol] | 170

The next molecules have a lower Ki than those just listed; values first:

Row | Ki [nM] | SMILES
10 | 2 | O=[N+]([O-])c1cc(CN2CCCCC2)ccc1N1CCC(CN2CCCC2)CC1 [Example 69]
11 | 5 | O=[N+]([O-])c1cc(CN2CCC(O)CC2)ccc1N1CCC(CN2CCCC2)CC1 [Example 71, 1-[3-Nitro-4-(4-pyrrolidin-1-ylmethyl-piperidin-1-yl)-benzyl]-piperidin-4-ol]
12 | 1 | Cc1cc(CN2CCCC2)ccc1N1CCC(CN2CCCC2)CC1 [Example 74]
13 | 6 | Cc1cc(CN2CCCCC2)ccc1N1CCC(CN2CCCC2)CC1 [Example 75]
14 | 4 | CN(C)Cc1ccc(N2CCC(CN3CCCC3)CC2)c(F)c1 [Example 79, [3-Fluoro-4-(4-pyrrolidin-1-ylmethyl-piperidin-1-yl)-benzyl]-dimethyl-amine]
15 | 4 | Fc1cc(CN2CCCCC2)ccc1N1CCC(CN2CCCC2)CC1 [Example 80, 1-[3-Fluoro-4-(4-pyrrolidin-1-ylmethyl-piperidin-1-yl)-benzyl]-piperidine]
